Publication PMC7203576 (Frontiers in Microbiology, 2020)
Values joined by “and” are separate entries in the source; they are usually repeats but may differ in a detail not shown here. Equal entries are not always repeated. Where two headings read alike, the source gives them in different places. Marks after values point to notes of the source that are not given here.

What was measured:
[1] = tested on: Magnaporthe oryzae Triticum (MoT) isolate BTJP 4 (5)
[2] = tested on: Magnaporthe oryzae Triticum (MoT) on detached wheat leaves cv. BARI Gom 24 (Prodip); conditions: in vivo
[3] = tested on: Magnaporthe oryzae Triticum (MoT) conidia; conditions: 50 μg/ml

For Gageotetrin B, the “Activity against MoT” value [1] was “Active”, the “Minimum inhibitory concentration (MIC) on mycelial growth” value [1] was 1.5 μg/disk and the “Morphology of treated hyphae (microscopy)” value [1] was “coarse, loss of radial growth, and irregular swelling on the tips”. The “Mycelial growth inhibition at the MIC” value [1] was 22.9 ± 1.6%, the “Percent inhibition of radial growth (PIRG) of mycelia” value [1] was 60.9 ± 2.5% and 59 ± 0.9% and 51.4 ± 1.7% and the “Average lesion length of wheat blast on detached leaves” value [2] was 1.5 ± 0.1 mm. The “Germinated conidia (% ± SE)” value ([3]; 0 h) was 0 ± 0^f %, the “Major morphological change/developmental transitions in the treated conidia” value ([3]; 0 h) was “No germination” and the “Major morphological change/developmental transitions in the treated conidia” value ([3]; 6 h) was “Germinated with a short germ tube”. The “Major morphological change/developmental transitions in the treated conidia” value ([3]; 12 h) was “Deformed germ tube (swollen)”, the “Major morphological change/developmental transitions in the treated conidia” value ([3]; 24 h) was “Abnormal appressoria formed; no mycelial growth took place” and the “Conidia with abnormally swollen (deformed) germ tubes” value ([3]; after 12 h) was 41 ± 3.8%.
